Structures are written as SMILES.

The target of this test is T1, GPR6 receptor expressed in CHO-K1 cells (Homo sapiens, UniProt P46095).
T1 construct: expressed in transfected cells
T1 sequence (P46095 whole entry): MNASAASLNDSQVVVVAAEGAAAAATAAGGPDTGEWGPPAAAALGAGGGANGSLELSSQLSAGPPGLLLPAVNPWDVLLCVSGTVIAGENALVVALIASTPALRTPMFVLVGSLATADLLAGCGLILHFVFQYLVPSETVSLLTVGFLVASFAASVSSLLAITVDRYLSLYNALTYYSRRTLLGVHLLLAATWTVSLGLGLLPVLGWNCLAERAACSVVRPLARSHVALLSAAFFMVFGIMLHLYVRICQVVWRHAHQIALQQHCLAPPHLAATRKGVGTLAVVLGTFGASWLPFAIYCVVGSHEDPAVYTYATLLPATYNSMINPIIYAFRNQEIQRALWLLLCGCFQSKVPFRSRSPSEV
The experiment in a line: In vitro inhibition of cAMP (EC50), cell-based HTRF cAMP assay. To be noted: inhibition of constitutive cAMP activity of GPR6 in CHO-K1 cells. The essentials: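 Cellular cAMP measured by Lance Ultra HTRF (Eu-cAMP tracer, ULight anti-cAMP), with EC50 fitted by four-parameter logistic. Test compounds sat on cells 45 min, 37 °C, in pH 7.4 Ringer's with 300 μM IBMX and 0.5% BSA; GPR6 in CHO-K1 induced beforehand by doxycycline, 2 μg/mL, 20 h.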
On the technique in general: TR-FRET usually uses a lanthanide donor and a delayed reading to cut background.
On to `Cc1cnc(C(=O)Nc2cc(C#N)ccc2N2CCC(Oc3ccc(F)cc3F)CC2)c(C)n1` [Example 114, N-(5-cyano-2-(4-(2,4-difluorophenoxy)piperidin-1-yl)phenyl)-3,5-dimethylpyrazine-2-carboxamide], for which the “pEC50, in vitro inhibition of cAMP” value is 6.1.
Turning to `Cc1nccnc1C(=O)Nc1cc(C#N)ccc1N1CCC(Oc2ccc(F)cc2F)CC1` [Example 115, N-(5-cyano-2-(4-(2,4-difluorophenoxy)piperidin-1-yl)phenyl)-3-methylpyrazine-2-carboxamide], the “pEC50, in vitro inhibition of cAMP” value was found to be 6.6.
Take `N#Cc1ccc(N2CCC(Oc3ccc(F)cc3F)CC2)c(NC(=O)c2csnn2)c1` [Example 116, N-(5-cyano-2-(4-(2,4-difluorophenoxy)piperidin-1-yl)phenyl)-1,2,3-thiadiazole-4-carboxamide]: the “pEC50, in vitro inhibition of cAMP” value is on record as 5.9.
With `N#Cc1ccc(N2CCC(Oc3ccc(F)cc3F)CC2)c(NC(=O)c2ccon2)c1` [Example 117, N-(5-cyano-2-(4-(2,4-difluorophenoxy)piperidin-1-yl)phenyl)isoxazole-3-carboxamide], the “pEC50, in vitro inhibition of cAMP” value was determined as 6.3.
In the case of `CCc1cc(C(=O)Nc2cc(C#N)ccc2N2CCC(Oc3ccc(F)cc3F)CC2)no1` [Example 118, N-(5-cyano-2-(4-(2,4-difluorophenoxy)piperidin-1-yl)phenyl)-5-ethylisoxazole-3-carboxamide], the “pEC50, in vitro inhibition of cAMP” value amounted to 6.4.
Regarding `Cc1nonc1C(=O)Nc1cc(C#N)ccc1N1CCC(Oc2ccc(F)cc2F)CC1` [Example 119, N-(5-cyano-2-(4-(2,4-difluorophenoxy)piperidin-1-yl)phenyl)-4-methyl-1,2,5-oxadiazole-3-carboxamide], the “pEC50, in vitro inhibition of cAMP” value is on record as below 5.7.
Regarding `CCn1ncc(C(=O)Nc2cc(C#N)cnc2N2CCC(Oc3ccc(F)cc3F)CC2)c1OC` [Example 120, N-(5-cyano-2-(4-(2,4-difluorophenoxy)piperidin-1-yl)pyridin-3-yl)-1-ethyl-5-methoxy-1H-pyrazole-4-carboxamide], the “pEC50, in vitro inhibition of cAMP” value is recorded as 7.4.
With `CCOc1c(C(=O)Nc2cc(C#N)cnc2N2CCC(Oc3ccc(F)cc3F)CC2)cnn1C` [Example 121, N-(5-cyano-2-(4-(2,4-difluorophenoxy)piperidin-1-yl)pyridin-3-yl)-5-ethoxy-1-methyl-1H-pyrazole-4-carboxamide], the “pEC50, in vitro inhibition of cAMP” value came to 6.7.
As for `N#Cc1ccc(N2CCC(Oc3ccc(F)cc3F)CC2)c(NC(=O)c2cocn2)c1` [Example 122, N-(5-cyano-2-(4-(2,4-difluorophenoxy)piperidin-1-yl)phenyl)oxazole-4-carboxamide], the “pEC50, in vitro inhibition of cAMP” value was 6.1.
`Cc1cnc(C(=O)Nc2cc(C#N)ccc2N2CCC(Oc3ccc(F)cc3F)CC2)cn1` [Example 123, N-(5-cyano-2-(4-(2,4-difluorophenoxy)piperidin-1-yl)phenyl)-5-methylpyrazine-2-carboxamide]: the “pEC50, in vitro inhibition of cAMP” value came to 6.5.
Take `Cc1ccc(C(=O)Nc2cc(C#N)ccc2N2CCC(Oc3ccc(F)cc3F)CC2)nc1` [Example 124, N-(5-cyano-2-(4-(2,4-difluorophenoxy)piperidin-1-yl)phenyl)-5-methylpicolinamide]: the “pEC50, in vitro inhibition of cAMP” value was 6.9.
For the compound `N#Cc1ccc(N2CCC(Oc3ccc(F)cc3F)CC2)c(NC(=O)c2cc(C3CC3)on2)c1` [Example 125, N-(5-cyano-2-(4-(2,4-difluorophenoxy)piperidin-1-yl)phenyl)-5-cyclopropylisoxazole-3-carboxamide], the “pEC50, in vitro inhibition of cAMP” value is 6.7.
For the compound `N#Cc1ccc(N2CCC(Oc3ccc(F)cc3F)CC2)c(NC(=O)c2cccnn2)c1` [Example 126, N-(5-cyano-2-(4-(2,4-difluorophenoxy)piperidin-1-yl)phenyl)pyridazine-3-carboxamide], the “pEC50, in vitro inhibition of cAMP” value was found to be 6.3.
On to `Cc1ocnc1C(=O)Nc1cc(C#N)ccc1N1CCC(Oc2ccc(F)cc2F)CC1` [Example 127, N-(5-cyano-2-(4-(2,4-difluorophenoxy)piperidin-1-yl)phenyl)-5-methyloxazole-4-carboxamide], for which the “pEC50, in vitro inhibition of cAMP” value is 6.1.
Regarding `N#Cc1ccc(N2CCC(Oc3ccc(F)cc3F)CC2)c(NC(=O)c2ccsn2)c1` [Example 128, N-(5-cyano-2-(4-(2,4-difluorophenoxy)piperidin-1-yl)phenyl)isothiazole-3-carboxamide], the “pEC50, in vitro inhibition of cAMP” value is recorded as 6.6.
As for `COc1cncc(C(=O)Nc2cc(C#N)ccc2N2CCC(Oc3ccc(F)cc3F)CC2)n1` [Example 129, N-(5-cyano-2-(4-(2,4-difluorophenoxy)piperidin-1-yl)phenyl)-6-methoxypyrazine-2-carboxamide], the “pEC50, in vitro inhibition of cAMP” value is recorded as 7.2.
As for `Cc1cncc(C(=O)Nc2cc(C#N)ccc2N2CCC(Oc3ccc(F)cc3F)CC2)n1` [Example 130, N-(5-cyano-2-(4-(2,4-difluorophenoxy)piperidin-1-yl)phenyl)-6-methylpyrazine-2-carboxamide], the “pEC50, in vitro inhibition of cAMP” value was determined as 7.1.
As to `Cc1onc(C(=O)Nc2cc(C#N)ccc2N2CCC(Oc3ccc(F)cc3F)CC2)c1C` [Example 131, N-(5-cyano-2-(4-(2,4-difluorophenoxy)piperidin-1-yl)phenyl)-4,5-dimethylisoxazole-3-carboxamide], the “pEC50, in vitro inhibition of cAMP” value is recorded as 7.0.
As to `Cc1nnc(C(=O)Nc2cc(C#N)ccc2N2CCC(Oc3ccc(F)cc3F)CC2)o1` [Example 132, N-(5-cyano-2-(4-(2,4-difluorophenoxy)piperidin-1-yl)phenyl)-5-methyl-1,3,4-oxadiazole-2-carboxamide], the “pEC50, in vitro inhibition of cAMP” value amounted to 5.6.
Next, `COc1ccc(C(=O)Nc2cc(C#N)ccc2N2CCC(Oc3ccc(F)cc3F)CC2)nc1` [Example 133, N-(5-cyano-2-(4-(2,4-difluorophenoxy)piperidin-1-yl)phenyl)-5-methoxypicolinamide]: 7.1; `N#Cc1ccc(N2CCC(Oc3ccc(F)cc3F)CC2)c(NC(=O)c2cnsn2)c1` [Example 134, N-(5-cyano-2-(4-(2,4-difluorophenoxy)piperidin-1-yl)phenyl)-1,2,5-thiadiazole-3-carboxamide]: 5.8; `Cc1cc(C(=O)Nc2cc(C#N)ccc2N2CCC(Oc3ccc(F)cc3F)CC2)nc(C)n1` [Example 135, N-(5-cyano-2-(4-(2,4-difluorophenoxy)piperidin-1-yl)phenyl)-2,6-dimethylpyrimidine-4-carboxamide]: 6.8.
For the compound `COc1ccc(C(=O)Nc2cc(C#N)ccc2N2CCC(Oc3ccc(F)cc3F)CC2)nn1` [Example 136, N-(5-cyano-2-(4-(2,4-difluorophenoxy)piperidin-1-yl)phenyl)-6-methoxypyridazine-3-carboxamide], the “pEC50, in vitro inhibition of cAMP” value is given as 6.8.
In the case of `Cc1nc(C(=O)Nc2cc(C#N)ccc2N2CCC(Oc3ccc(F)cc3F)CC2)ccc1F` [Example 137, N-(5-cyano-2-(4-(2,4-difluorophenoxy)piperidin-1-yl)phenyl)-5-fluoro-6-methylpicolinamide], the “pEC50, in vitro inhibition of cAMP” value is given as 7.1.
Consider `COc1ccnc(C(=O)Nc2cc(C#N)ccc2N2CCC(Oc3ccc(F)cc3F)CC2)n1` [Example 138, N-(5-cyano-2-(4-(2,4-difluorophenoxy)piperidin-1-yl)phenyl)-4-methoxypyrimidine-2-carboxamide], for which the “pEC50, in vitro inhibition of cAMP” value was below 4.5.
Regarding `N#Cc1ccc(N2CCC(Oc3ccc(F)cc3F)CC2)c(NC(=O)c2cnon2)c1` [Example 139, N-(5-cyano-2-(4-(2,4-difluorophenoxy)piperidin-1-yl)phenyl)-1,2,5-oxadiazole-3-carboxamide], the “pEC50, in vitro inhibition of cAMP” value was below 4.5.
For `Cc1nccc(C(=O)Nc2cc(C#N)ccc2N2CCC(Oc3ccc(F)cc3F)CC2)n1` [Example 141, N-(5-cyano-2-(4-(2,4-difluorophenoxy)piperidin-1-yl)phenyl)-2-methylpyrimidine-4-carboxamide], the “pEC50, in vitro inhibition of cAMP” value stood at 7.2.
As for `COc1cnc(C(=O)Nc2cnc(C)cc2N2CCC(Oc3ccc(F)cc3F)CC2)cn1` [Example 142, N-(4-(4-(2,4-difluorophenoxy)piperidin-1-yl)-6-methylpyridin-3-yl)-5-methoxypyrazine-2-carboxamide], the “pEC50, in vitro inhibition of cAMP” value was 6.2.
`CCn1nc(C(=O)Nc2cc(C#N)ccc2N2CCC(Oc3ccc(F)cc3F)CC2)cc1C` [Example 143, N-(5-cyano-2-(4-(2,4-difluorophenoxy)piperidin-1-yl)phenyl)-1-ethyl-5-methyl-1H-pyrazole-3-carboxamide]: the “pEC50, in vitro inhibition of cAMP” value came to 6.8.
With `COc1nccc(C(=O)Nc2cc(C#N)ccc2N2CCC(Oc3ccc(F)cc3F)CC2)n1` [Example 144], the “pEC50, in vitro inhibition of cAMP” value amounted to 6.9.
The result for `Cn1cc(C(=O)Nc2cc(C#N)ccc2N2CCC(Oc3ccc(F)cc3F)CC2)nn1` [Example 145, N-(5-cyano-2-(4-(2,4-difluorophenoxy)piperidin-1-yl)phenyl)-1-methyl-1H-1,2,3-triazole-4-carboxamide] reads 6.6.
In the case of `Cc1ccc(C(=O)Nc2cc(C#N)ccc2N2CCC(Oc3ccc(F)cc3F)CC2)nn1` [Example 146, N-(5-cyano-2-(4-(2,4-difluorophenoxy)piperidin-1-yl)phenyl)-6-methylpyridazine-3-carboxamide], the “pEC50, in vitro inhibition of cAMP” value came out at 6.6.
The result for `COc1ncc(C)cc1C(=O)Nc1cc(C(=O)N(C)C)cnc1N1CCC(Oc2ccc(F)cc2F)CC1` [Example 147, 6-(4-(2,4-difluorophenoxy)piperidin-1-yl)-5-(2-methoxy-5-methylnicotinamido)-N,N-dimethylnicotinamide] reads 6.9; that for `COc1ncccc1C(=O)Nc1cc(C(=O)N(C)C)cnc1N1CCC(Oc2ccc(F)cc2F)CC1` [Example 148, 6-(4-(2,4-difluorophenoxy)piperidin-1-yl)-5-(2-methoxynicotinamido)-N,N-dimethylnicotinamide], 7.2.

(Values after patent US11426397B2, “Piperidinyl- and piperazinyl-substituted heteroaromatic carboxamides as modulators of GPR6” (TAKEDA PHARMACEUTICAL COMPANY LIMITED, priority 2017, dated 2022).)
